Experimental data reported in ChEMBL document CHEMBL1141241, “3,6-disubstituted coumarins as mechanism-based inhibitors of thrombin and factor Xa” (J Med Chem, 2005).

Legend:
[1] = target: Prothrombin (Homo sapiens) (UniProt P00734); conditions: at 2 µM
Description: Inhibitory activity against human thrombin at 2 uM

[2] = target: Coagulation factor X (Homo sapiens) (UniProt P00742); assay: Inhibitory activity against human FXa at 5 uM; values are per cent of control
[3] = Selectivity ratio for human thrombin over bovine trypsin

Chain of Coagulation factor X (Homo sapiens) (P00742 41-179 limits assumed): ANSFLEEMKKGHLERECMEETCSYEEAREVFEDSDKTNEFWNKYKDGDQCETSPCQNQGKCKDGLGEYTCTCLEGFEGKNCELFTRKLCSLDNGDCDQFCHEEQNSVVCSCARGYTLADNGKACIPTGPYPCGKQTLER
Chain of Coagulation factor X (Homo sapiens) (P00742 235-488 limits assumed): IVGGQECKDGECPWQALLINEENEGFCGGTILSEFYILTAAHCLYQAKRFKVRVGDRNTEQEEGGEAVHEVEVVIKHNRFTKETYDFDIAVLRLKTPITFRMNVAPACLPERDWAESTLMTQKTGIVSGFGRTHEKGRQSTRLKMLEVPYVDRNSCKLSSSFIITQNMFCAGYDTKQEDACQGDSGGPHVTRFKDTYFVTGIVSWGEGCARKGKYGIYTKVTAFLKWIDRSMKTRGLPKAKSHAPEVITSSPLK

Row | SMILES | residual activity [1] | residual activity [2] | Ratio [3]
1 | Cc1ccc2oc(=O)c(C(=O)Oc3cccc(Cl)c3)cc2c1 | 70% | 61% | –
2 | O=C(Oc1cccc(F)c1)c1cc2cc(CCl)ccc2oc1=O | 24% | 61% | –
3 | O=C(Oc1cccc(I)c1)c1cc2cc(CCl)ccc2oc1=O | 27% | 73% | –
4 | O=C(Oc1cccc2cccnc12)c1cc2cc(CCl)ccc2oc1=O | 107% | 114% | –
5 | COc1cccc(OC(=O)c2cc3cc(CCl)ccc3oc2=O)c1 | 66% | 108% | –
6 | O=C(Oc1cccnc1)c1cc2cc(CCl)ccc2oc1=O | 113% | 114% | –
7 | Cc1ccccc1OC(=O)c1cc2cc(CCl)ccc2oc1=O | 79% | 103% | –
8 | O=C(Oc1ccc2ccccc2c1)c1cc2cc(CCl)ccc2oc1=O | 109% | 113% | –
9 | COc1cc(Cl)cc(OC(=O)c2cc3cc(CCl)ccc3oc2=O)c1 | 103% | 126% | –
10 | CC(=O)OCc1ccc2oc(=O)c(C(=O)Oc3cccc(Cl)c3)cc2c1 | 91% | 82% | –
11 | O=C(Oc1cccc2ccccc12)c1cc2cc(CCl)ccc2oc1=O | 115% | 109% | –
12 | O=C(Oc1ccccc1)c1cc2cc(CCl)ccc2oc1=O | 60% | 59% | –
13 | O=C(Oc1cc(Cl)cc(Cl)c1)c1cc2cc(CCl)ccc2oc1=O | 102% | 73% | –
14 | O=C(Oc1cccc([N+](=O)[O-])c1)c1cc2cc(CCl)ccc2oc1=O | 80% | 124% | –
15 | O=C(c1cccc(Cl)c1)c1cc2cc(CCl)ccc2oc1=O | 100% | 83% | –
16 | O=C(Oc1cccc(Cl)c1Cl)c1cc2cc(CCl)ccc2oc1=O | 100% | 125% | –
17 | O=C(Nc1cccc(Cl)c1)c1cc2cc(CCl)ccc2oc1=O | 97% | 89% | –

Row | SMILES | residual activity [1] | residual activity [2] | Ratio [3]
18 | O=C(Oc1cccc(C(F)(F)F)c1)c1cc2cc(CCl)ccc2oc1=O | 66% | 134% | –
19 | O=C(Oc1cccc(Cl)c1)c1cc2ccccc2oc1=O | 107% | 77% | –
20 | O=C(Oc1cc(Cl)ccc1Cl)c1cc2cc(CCl)ccc2oc1=O | – | 39% | –
21 | O=C(Oc1ccccn1)c1cc2cc(CCl)ccc2oc1=O | 100% | 89% | –
22 | O=C(Oc1c(Cl)cccc1Cl)c1cc2cc(CCl)ccc2oc1=O | 101% | 109% | –
23 | O=C(Oc1cccc(Br)c1)c1cc2cc(CCl)ccc2oc1=O | 8% | 33% | 55
24 | O=C(Cc1cccc(Cl)c1)c1cc2cc(CCl)ccc2oc1=O | 77% | 77% | –
25 | O=C(Sc1cccc(Cl)c1)c1cc2cc(CCl)ccc2oc1=O | 107% | 60% | –
26 | O=C(Oc1ccc2ncccc2c1)c1cc2cc(CCl)ccc2oc1=O | 98% | 125% | –
27 | O=C(Oc1ccc(I)cc1)c1cc2cc(CCl)ccc2oc1=O | 99% | 80% | –
28 | Cc1ccc(OC(=O)c2cc3cc(CCl)ccc3oc2=O)cc1 | 111% | 72% | –
29 | O=C(OCc1ccccc1)c1cc2cc(CCl)ccc2oc1=O | 95% | 110% | –
30 | Cc1cccc(OC(=O)c2cc3cc(CCl)ccc3oc2=O)c1 | 35% | 78% | –
31 | O=C(Oc1ccc(Cl)cc1)c1cc2cc(CCl)ccc2oc1=O | 107% | 102% | –
32 | O=C(Oc1cccc(Cl)c1)c1cc2cc(CCl)ccc2oc1=O | 10% | 29% | 25
33 | O=C(Oc1ccccc1Cl)c1cc2cc(CCl)ccc2oc1=O | 78% | 134% | –
34 | O=C(Oc1ccccc1I)c1cc2cc(CCl)ccc2oc1=O | 59% | 92% | –
